Entries after “also recorded” stand apart in the source; their conditions may differ. Read-outs that look alike come from different tables or passages of the source.
Experiments:
[1] = parameters: method as in PMID 18483090; conditions: 60 min after injection; cited from earlier work
[2] = Safety and tolerability, phase I clinical study; assay type: in vivo, human
Source text: (§1) The study included nine patients, and was approved by the ethics committee of the Medical University of Innsbruck and the Austrian Competent Authority (BASG, EudraCT No. 2013-003741-42). Informed written consent was obtained from all patients. Inclusion criteria were untreated HCC lesions in patients with liver cirrhosis Child–Pugh class A or B. Diagnosis and exact number and size of HCC lesions was confirmed by a multiphasic CT or MRI according to EASL/EORTC guidelines. Exclusion criteria were decompensated liver cirrhosis Child–Pugh class C, uncontrolled complications of portal hypertension (refractory ascites, advanced hepatic encephalopathy or large esophageal varices), and advanced renal insufficiency with an eGFR below 30 ml/min. Baseline examinations included CT or MRI scan, physical examination, ECG, and laboratory tests (including creatinine, blood count, transaminases, bilirubin, and coagulation parameters) not older than 14 days prior to the PET scan. Physical examination and laboratory tests were repeated on the day after the PET scan and during further follow-up visits to assess possible adverse reactions.

[3] = PET/CT biodistribution (%ID/l, SUV); assay type: in vivo, human; conditions: for SUV at 1 h / tissue uptake dose at 1 h / SUV: human, total radioactivity; for SUV at 1 h / SUV: intravenous; for SUV at 1 h / tissue uptake dose at 1 h: 60 min p.i.; for tissue uptake dose at 1 h: PET VOI; for SUV: average of all patients
Experimental: For each patient, a total of three PET/CT scans were performed using a Discovery PET/CT 690 VCT scanner (GE Healthcare, Milwaukee, WI, USA). The patients were allowed to urinate after the second scan and a sample of the urine was collected for metabolic analysis. For all patients, the region from upper thigh to the skull/cranium was covered by a seven-bed emission scan (2 min per bed position; field of view is 15.2 cm with overlapping acquisitions, resulting in a length of 12.3 cm for each bed position) performed in caudocranial direction. The mean starting times of the three scans were 8.3 ± 2.1, 36.9 ± 2.8, and 75.1 ± 3.4 min after tracer injection, respectively. Injected activity ranged from 154 to 184 MBq [^68Ga]NODAGA-RGD corresponding with approx. 10–12 μg peptide. X-ray CT transmission scans were performed twice, before the first and the third scan, to correct for gamma ray attenuation and to obtain the anatomical data required for drawing of the volume of interest (VOI). A second CT scan was required to guarantee the same positioning of VOIs (as for first and second scan) for image analysis because of patient movement.
Positron emission data were reconstructed using an ordered-subsets expectation maximization algorithm. Reconstructions were performed with two iterations and 24 subsets. The images were corrected for attenuation using CT data collected over the same regions as for emission imaging. For image analysis, Hermes software (Version P5 gold 4.4-B; Hermes Medical Solutions AB, Stockholm, Sweden) was used. Images were calibrated to Bq/ml for radiation dosimetry estimates.
(§2) To obtain the time activity curves and to calculate the residence times, VOIs were placed in the corresponding organs (liver, urine bladder, spleen, kidneys, small intestine, muscle, lung, and left ventricle). The diameter of the VOIs was set to 2.5 cm for all organs with the exception of the liver, where it was set to 5 cm and placed in the center of the corresponding organ to avoid underestimated organ radioactivity because of partial-volume effects. Due to patient movement, the PET/CTs were fused between second and third scan to guarantee the identical position of VOIs at different scans.

[4] = Organ/tissue residence times; assay type: in vivo, human; conditions: all patients
Source text: as §2
Because of the limited number of measured time points, a monoexponential fit based on the decay corrected data was used for calculation of organ residence times.
(§3) Urinary bladder radioactivity was determined from three VOIs at least 2.5 cm in diameter drawn inside the bladder. Subsequently, the urinary bladder volume was measured by drawing freehand ROIs around bladder contour at each of the three emission scans. The volume was calculated by HERMES software. The results were used to calculate the urine bladder content residence time.

[5] = Radiation dosimetry (OLINDA/EXM); assay type: in vivo, human
Experimental: For dosimetry calculations, the OLINDA/EXM software (Version 1.1, copyright Vanderbilt University, 2007) was used. Radioactivity in the source organs was determined by multiplying the measured radioactivity concentration (Bq/ml) by the organ masses from the OLINDA adult men phantom; the data were body weight- and lean body mass index-corrected; furthermore, kidney mass was patient-corrected by CT scan.
as §3

HCC lesions = assay: Tracer accumulation in HCC lesions (PET/CT); assay type: in vivo, human; conditions: nine patients, HCC lesions identified by CT/MRI
Source text: as §1, with “Baseline examinations included CT or MRI scan, physical examination, ECG, and laboratory tests (including creatinine, blood count, transaminases, bilirubin, and coagulation parameters) not older than 14 days prior to the PET scan. Physical examination and laboratory tests were repeated on the day after the PET scan and during further follow-up visits to assess possible adverse reactions.” left out
as §2, with “Due to patient movement, the PET/CTs were fused between second and third scan to guarantee the identical position of VOIs at different scans.” left out

[6] = Metabolite analysis of blood samples by RP-HPLC; assay type: in vivo; conditions: human blood 30 and 60 min p.i., n = 3; acetonitrile extraction, RP-HPLC C18, 30-s fractions, gamma counter
Experimental: (§4) Blood samples were collected 30 and 60 min and urine 60 min after tracer injection. Blood samples (approx. 15 ml) were centrifuged at 2,500 rpm for 5 min. The supernatant was treated with acetonitrile (1:1) and centrifuged at 3,000 rpm for 3 min. To remove the organic solvent, 1 ml of the supernatant was treated with an argon stream and approx. 300 μl of the remaining solution was analyzed. For urine analysis, an aliquot of 1 ml was passed through a sterile filter (Millex GV, Merck KGaA, Darmstadt, Germany), washed with 1 ml water (which was separately collected) and 50 μl of the filtrate was analyzed.
(§5) Analysis of metabolites was carried out using reversed-phase high-performance liquid chromatography (RP-HPLC) systems. For blood sample analysis, a Dionex P680 Pump (Germering, Germany) with a sample loop of 1 ml and a SRD Nucleosil 120-3C18 column (150 × 3 mm; Vienna, Austria) were used and fractions of 30 s were collected manually and counted in a 2480 Wizard^2 3″ automatic gamma counter (PerkinElmer, Vienna, Austria). For urine analysis, a Dionex Ultimate 3000 RS with an ACE 3C18 column (150 × 3 mm; Aberdeen, Great Britain) and a raytest Gabi radiometric detector (raytest Isotopenmessgeraete GmbH, Straubenhardt, Germany) were used. […]

[7] = Metabolite analysis of urine samples by RP-HPLC; assay type: in vivo; conditions: human urine 60 min p.i., n = 6; RP-HPLC C18, radiometric detector
Experimental: as §4, §5

[8] = in vivo; cited from earlier work
Source text: The radiation dose estimates from this study indicate low radiation burden for patients during a [^68Ga]NODAGA-RGD PET scan. The total effective dose was in the range of other radiolabeled RGD-peptides used in clinical studies (e.g., [^18F]Galacto-RGD, Fluciclatide, and RGD-K5; for overview see [6]) as well as other commonly used oncologic PET tracers such as [^18F]FDG (between 20 and 30 μSv/MBq). Even if 200 MBq [^68Ga]NODAGA-RGD (average in this study was 167 ± 10 MBq) would have been injected, the effective dose would have only been 4.3 mSv. This is well within the limits of risk c ...

[9] = i.v., OLINDA/EXM, individual residence times, mean of patients
[10] = i.v., OLINDA/EXM, individual residence times, mean of patients, voiding after second scan

Molecule: [^18F]Fluciclatide
- intact tracer in blood [1]: 74%

Molecule: N=C(N)NCCC[C@@H]1NC(=O)[C@H](CCCCNC(=O)CCC(C(=O)O)N2CCN(CC(=O)O)CCN(CC(=O)O)CC2)NC(=O)[C@@H](Cc2ccccc2)NC(=O)[C@H](CC(=O)O)NC(=O)CNC1=O (stereo partly drawn) [[^68Ga]NODAGA-RGD, metal not drawn]
- changes in kidney, liver, or heart function during follow-up ([2]; clinical and biochemical investigations, nine patients): no significant changes
- drug-/procedure-related adverse effects ([2]; nine male patients with HCC and liver cirrhosis, i.v. 154-184 MBq): no drug-related adverse effects were observed; also recorded: no procedure-related adverse reactions were observed
- tolerability ([2]; nine male patients with HCC and liver cirrhosis, i.v. 154-184 MBq (approx. 10-12 μg peptide)): well tolerated in all patients
- SUV at 1 h ([3]; bladder, patients, read-out: median SUV, bladder): 31 SUV
- SUV at 1 h ([3]; blood, patients, read-out: median SUV, blood): 0.72 SUV
- tissue uptake dose at 1 h ([3]; blood, patients, read-out: %ID/l, blood): 0.56 ± 0.43 %ID
- SUV at 1 h ([3]; intestine, patients, read-out: median SUV, intestine): 0.88 SUV
- tissue uptake dose at 1 h ([3]; intestine, patients, read-out: %ID/l, intestine): 0.54 ± 0.39 %ID
- SUV at 1 h ([3]; kidneys, patients, read-out: median SUV, kidneys): 4.5 SUV
- SUV at 1 h ([3]; liver, patients, read-out: median SUV, liver): 2.9 SUV
- SUV ([3]; liver, first scan (8 ± 2 min p.i.), read-out: mean SUV in the liver, first image): 3.8 SUV
- SUV ([3]; liver, last scan (75 ± 4 min p.i.), read-out: mean SUV in the liver, last image): 2.9 SUV
- SUV at 1 h ([3]; lung, patients, read-out: median SUV, lung): 0.39 SUV
- tissue uptake dose at 1 h ([3]; lung, patients, read-out: %ID/l, lung): 0.22 ± 0.05 %ID
- SUV at 1 h ([3]; muscle, patients, read-out: median SUV, muscle): 0.26 SUV
- tissue uptake dose at 1 h ([3]; muscle, patients, read-out: %ID/l, muscle tissue): 0.16 ± 0.8 %ID
- SUV at 1 h ([3]; spleen, patients, read-out: median SUV, spleen): 3.8 SUV
- elimination ([3]; patients, PET): rapid and predominantly renal elimination
- radioactivity concentration in the bladder after voiding, % of the value before voiding ([3]; voiding between second and third scan (60 min p.i.), Fig. 3): approx. 20%
- sum of the mean residence time ([4]; all organs): 1.11 h
- residence time, Remainder of body, Mean [4]: 42.2 (MBq × h/MBq) × 10^2
- residence time, Blood, Mean ([4]; monoexponential fit): 0.011 h
- residence time, Kidneys, Mean ([4]; monoexponential fit): 0.054 h
- residence time, Liver, Mean ([4]; monoexponential fit): 0.113 h
- residence time, Lungs, Mean ([4]; monoexponential fit): 0.011 h
- residence time, Muscle, Mean ([4]; monoexponential fit): 0.246 h
- residence time, Small intestine, Mean ([4]; monoexponential fit): 1.6 (MBq × h/MBq) × 10^2
- residence time, Spleen, Mean ([4]; monoexponential fit): 1.8 (MBq × h/MBq) × 10^2
- effective dose, 30-min bladder voiding model ([5]; OLINDA/EXM, 30-min bladder voiding model): 10.9 ± 1.9 μSv/MBq
- absorbed radiation dose, urinary bladder wall ([5]; highest absorbed dose, OLINDA/EXM): 0.26 ± 0.09 mSv/MBq
- effective dose if 200 MBq injected ([5]; hypothetical injection of 200 MBq): 4.3 mSv
- Radiation dose estimate, Adrenals, Mean [5, 9]: 7.88 μSv/MBq
- Radiation dose estimate, Brain, Mean [5, 9]: 5.21 μSv/MBq
- Radiation dose estimate, Breast, Mean [5, 9]: 5.01 μSv/MBq
- Radiation dose estimate, Gallbladder wall, Mean [5, 9]: 8.67 μSv/MBq
- Radiation dose estimate, Heart wall, Mean [5, 9]: 6.33 μSv/MBq
- Radiation dose estimate, Kidneys, Mean [5, 9]: 69.00 μSv/MBq
- Radiation dose estimate, Liver, Mean [5, 9]: 32.00 μSv/MBq
- Radiation dose estimate, Lower large intestinal wall, Mean [5, 9]: 8.98 μSv/MBq
- Radiation dose estimate, Lungs, Mean [5, 9]: 7.17 μSv/MBq
- Radiation dose estimate, Muscle, Mean [5, 9]: 6.30 μSv/MBq
- Radiation dose estimate, Osteogenic cells, Mean [5, 9]: 8.10 μSv/MBq
- Radiation dose estimate, Pancreas, Mean [5, 9]: 7.99 μSv/MBq
- Radiation dose estimate, Red marrow, Mean [5, 9]: 5.47 μSv/MBq
- Radiation dose estimate, Skin, Mean [5, 9]: 5.03 μSv/MBq
- Radiation dose estimate, Small intestinal wall, Mean [5, 9]: 15.80 μSv/MBq
- Radiation dose estimate, Spleen, Mean [5, 9]: 48.20 μSv/MBq
- Radiation dose estimate, Stomach wall, Mean [5, 9]: 1.95 μSv/MBq
- Radiation dose estimate, Testes, Mean [5, 9]: 7.15 μSv/MBq
- Radiation dose estimate, Thymus, Mean [5, 9]: 5.57 μSv/MBq
- Radiation dose estimate, Thyroid, Mean [5, 9]: 5.39 μSv/MBq
- Radiation dose estimate, Total body, Mean [5, 9]: 7.29 μSv/MBq
- Radiation dose estimate, Upper large intestinal wall, Mean [5, 9]: 7.75 μSv/MBq
- Effective dose, Mean [5, 10]: 21.50 μSv/MBq
- Radiation dose estimate, Urinary bladder wall, Mean [5, 10]: 262.00 μSv/MBq
- uptake in HCC compared with background liver tissue (HCC lesions): No increased uptake; also recorded: no increased radioactivity concentration
- metabolites in blood [6]: No metabolites could be detected; also recorded: No metabolites were detected
- metabolites in urine [7]: No metabolites could be detected; also recorded: No metabolites were detected

Molecule: OC[C@H]1OC(O)[C@H]([18F])[C@@H](O)[C@@H]1O (stereo partly drawn) [[^18F]FDG, 2-[F-18]fluoro-2-deoxy-D-glucose]
- effective dose [8]: 20-30 μSv/MBq
